Laboratory results taken from US6624182B1, “Hydroxyphenylvinylthiazoles” (Ciba Specialty Chemicals Corporation, priority 1999, dated 2003).

Assays:
Test in all cases: Determination of the minimum inhibitory concentration (MIC value) in microtitre plates
S. aureus = format: cell-based; conditions: optical density at 620 nm, 48 hours at 37° C., MIC = ≦20% growth; tested at 100; 10 and 1 ppm (approximate values); (2), (3), (4) at 120; 60; 30; 15; 7.5; 3.75 ppm
Description: (§1) Determination of the Minimum Inhibitory Concentration (MIC Value) in Microtitre Plates Nutrient Medium Casein/soybean flour/peptone bouillon for the preparation of preliminary cultures of the test bacteria and yeast. Mycological slant agar for the preliminary culture of moulds Examples of Test Microbes: Bacteria: Staphylococcus hominis DMS 20328 Procedure: The test substances are pre-dissolved in dimethyl sulfoxide (DMSO) and tested in a series of dilutions of 1:2. Bacteria and yeast are cultured overnight in CASO bouillon; the mould is cultured on myco-logical slant agar and sponged off with 10 ml of 0.85% sodium chloride solution (+0.1% Triton X-100). All the test microbes are adjusted to a germ count of 1−5×10^6 KBE/ml using 0.85% sodium chloride solution. The test substances are pre-pipetted into microtitre plates in an amount of 8 μl per well. Pre-diluted microbe suspensions are diluted 1:100 in CASO bouillon (bacteria and yeast) or Sabouraud 2% glucose bouillon (mould) and added to the test substances in an amount of 192 μl per well. The test batches are incubated for 48 hours at 37° C. (bacteria and yeast) or for 5 days at 28° C. (mould). After incubation, the growth is determined by means of the clouding of the test batches (optical density) at 620 nm in a microplate reader. The concentration of substance at which (compared with the growth control) a marked inhibition of growth (≦20% growth) of the test microbes can be observed is given as the minimum inhibitory concentration (MIC value). One microtitre plate is used per test microbe and substance concentration. All substances are tested in duplicate.

P. aeruginosa = format: cell-based, Pseudomonas aeruginosa CIP A-22; conditions: optical density at 620 nm, 48 hours at 37° C., MIC = ≦20% growth; tested at 100; 10 and 1 ppm (approximate values); (2), (3), (4) at 120; 60; 30; 15; 7.5; 3.75 ppm
Procedure: as §1, with “Pseudomonas aeruginosa CIP A-22” for “Staphylococcus hominis DMS 20328”

C. albicans = format: cell-based, Candida albicans ATCC 10231; conditions: optical density at 620 nm, 48 hours at 37° C., MIC = ≦20% growth; tested at 100; 10 and 1 ppm (approximate values); (2), (3), (4) at 120; 60; 30; 15; 7.5; 3.75 ppm
Procedure: as §1, with “Yeast: Candida albicans ATCC 10231” for “Bacteria: Staphylococcus hominis DMS 20328”

A. niger = format: cell-based, Aspergillus niger ATCC 6275; conditions: optical density at 620 nm, 5 days at 28° C., MIC = ≦20% growth; tested at 100; 10 and 1 ppm (approximate values); (2), (3), (4) at 120; 60; 30; 15; 7.5; 3.75 ppm
Procedure: as §1, with “Mould: Aspergillus niger ATCC 6275” for “Bacteria: Staphylococcus hominis DMS 20328”

E. coli = format: cell-based, Escherichia coli NCTC 8196; conditions: optical density at 620 nm, 48 hours at 37° C., MIC = ≦20% growth; tested at 100; 10 and 1 ppm (approximate values); (2), (3), (4) at 120; 60; 30; 15; 7.5; 3.75 ppm
Procedure: as §1, with “Escherichia coli NCTC 8196” for “Staphylococcus hominis DMS 20328”

Compound | MIC values in ppm S. aureus (S. aureus) | MIC values in ppm P. aeruginosa (P. aeruginosa) | MIC values in ppm C. albicans (C. albicans) | MIC values in ppm A. niger (A. niger) | MIC values in ppm E. coli (E. coli)
CCOc1cc(/C=C/c2nc(C(C)(C)C)cs2)ccc1O [Compound of formula (19)] | >100 ppm | >100 ppm | >100 ppm | >100 ppm | >100 ppm
CC(C)(C)c1csc(/C=C/c2cccc(O)c2)n1 [Compound of formula (17)] | >100 ppm | >100 ppm | >100 ppm | >100 ppm | >100 ppm
Oc1ccccc1/C=C/c1nc(-c2ccc(F)cc2)cs1 [Compound of formula (10)] | >100 ppm | >100 ppm | >100 ppm | >100 ppm | >100 ppm
Cc1cccc(/C=C/c2nc(-c3ccc(F)cc3)cs2)c1O [Compound of formula (13)] | >100 ppm | >100 ppm | >100 ppm | >100 ppm | >100 ppm
CC(C)(C)c1csc(/C=C/c2ccc(O)cc2)n1 [Compound of formula (16)] | >100 ppm | >100 ppm | >100 ppm | >100 ppm | >100 ppm
COc1ccc(/C=C/c2nc(C(C)(C)C)cs2)cc1O [Compound of formula (18)] | >100 ppm | >100 ppm | >100 ppm | >100 ppm | >100 ppm
Cc1cc(/C=C/c2nc(-c3ccc(F)cc3)cs2)cc(C)c1O [Compound of formula (12)] | >100 ppm | >100 ppm | >100 ppm | >100 ppm | >100 ppm

Continued, values first:

MIC values in ppm S. aureus (S. aureus) | MIC values in ppm P. aeruginosa (P. aeruginosa) | MIC values in ppm C. albicans (C. albicans) | MIC values in ppm A. niger (A. niger) | MIC values in ppm E. coli (E. coli) | Compound
>100 ppm | >100 ppm | >100 ppm | >100 ppm | >100 ppm | CCc1csc(/C=C/c2ccc(OC)cc2O)n1 [Compound of formula (44)]
>100 ppm | >100 ppm | >100 ppm | >100 ppm | >100 ppm | CCOc1cc(/C=C/c2nc(-c3ccccc3)cs2)ccc1O [Compound of formula (53)]
>100 ppm | >100 ppm | >100 ppm | >100 ppm | >100 ppm | COc1cc(/C=C/c2nc(-c3ccc(N4CCCC4)cc3)cs2)ccc1O [Compound of formula (31)]
>100 ppm | >100 ppm | >100 ppm | >100 ppm | >100 ppm | Oc1ccc(/C=C/c2nc(-c3ccc(N4CCCC4)cc3)cs2)cc1 [Compound of formula (27)]
>100 ppm | >100 ppm | >100 ppm | >100 ppm | >100 ppm | COc1cc(O)ccc1/C=C/c1nc(C(C)(C)C)cs1 [Compound of formula (26)]
>100 ppm | >100 ppm | >100 ppm | >100 ppm | >100 ppm | CCc1csc(/C=C/c2ccc(OCc3ccccc3)cc2O)n1 [Compound of formula (49)]
>100 ppm | >100 ppm | >100 ppm | >100 ppm | >100 ppm | CCc1csc(/C=C/c2ccccc2O)n1 [Compound of formula (45)]
>100 ppm | >100 ppm | >100 ppm | >100 ppm | >100 ppm | COc1ccc(/C=C/c2nc(C(C)(C)C)cs2)c(O)c1 [Compound of formula (21)]
